Source: paper PMC7822030, “Hybrid Inhibitors of DNA Gyrase A and B: Design, Synthesis and Evaluation” (Pharmaceutics, 2020)
Like-named read-outs stand apart in the source and are kept apart here.

Key:
[1] = target: T1, E. coli DNA gyrase (Escherichia coli, UniProt P0AES4+P0AES6); experiment: E. coli DNA gyrase supercoiling assay; assay type: biochemical
T1 construct: purchased Inspiralis, Norwich, UK
Experimental: (§1) The assay for determination of the IC50 values was performed according to previously reported procedures.
(§2) Briefly, inhibitory activities were determined using supercoiling (for DNA gyrase) and relaxation (for topoisomerase IV) assay kits (Inspiralis, Norwich, UK) on streptavidin-coated 96-well microtiter plates from Thermo Scientific Pierce (Thermo Fisher Scientific, Waltham, MA, USA). First, the plates were rehydrated with Wash Buffer and the biotinylated oligonucleotide TFO1 was then immobilized. After washing off the unbound oligonucleotide with Wash Buffer, the enzyme assay was performed. Into each well was added 24 µL of mixture containing 6 µL of Assay Buffer (containing ATP), 0.75 µL of relaxed (for E. coli DNA gyrase supercoiling assay) or supercoiled (for E. coli topoisomerase IV relaxation assay) pNO1 plasmid and 17.25 µL of water. Additionally, 3 µL of a solution of the inhibitor in 10% DMSO containing 0.008% Tween 20 and 3 µL of enzyme (1.5 U) in Dilution Buffer were also added to the wells. […] The TF buffer was added to terminate the enzymatic reaction and after additional incubation for 30 min at room temperature, which allowed for triplex formation (biotin–oligonucleotide–plasmid), the unbound plasmid was washed off using TF buffer. Promega Diamond dye in T10 buffer was then added. […] Here, the compounds were diluted using 2-fold serial dilution steps of the given compound. GraphPad Prism 6.0 software was used to calculate the IC50 values, which were determined in at least two independent measurements, and their means are given as the final result. […] Dose-response curves can be found in Supplementary Materials.

[2] = target: T2, E. coli topoisomerase IV (Escherichia coli, UniProt P0AFI2+P20083); experiment: E. coli topoisomerase IV relaxation assay; assay type: biochemical
T2 construct: purchased Inspiralis, Norwich, UK
Experimental: as §1, §2

[3] = system: A. baumannii ATCC 17978; experiment: MIC broth microdilution, A. baumannii; assay type: cell-based; conditions: Acinetobacter baumannii, ATCC17978, read-out: MIC A. baumannii ATCC #
Excerpt: (§3) E. coli MG1655 originated from the laboratory collection of Dr. Csaba Pál. […] E. coli K-12 BW25113 single-gene knockout mutant lines ΔdapF, ΔmrcB, ΔsurA, ΔacrB and ΔtolC originated form the Keio collection copy owned by the laboratory of Dr. Csaba Pál.
(§4) Cation-adjusted Mueller Hinton II broth (MHBII) was used for growth of the bacteria under standard laboratory conditions, for antimicrobial susceptibility tests, and for selection of resistant variants. To prepare the MHBII broth, 22 g MHBII powder (containing 3 g beef extract, 17.5 g acid hydrolysate of casein, 1.5 g starch; Becton, Dickinson and Co., Franklin Lakes, NJ, USA) was dissolved in 1 L water. MHBII agar was prepared by addition of 14 g agar (Bacto; Molar Chemicals, Halásztelek, Hungary) to 1 L broth.
(§5) Minimum inhibitory concentrations (MICs) were determined using a standard serial broth microdilution technique, according to the Clinical and Laboratory Standards Institute guidelines. […] For Enterococcus sp., the cells were plated in BHI agar plates, and BHI broth was used to determine the MICs. […] Following the dilutions, each well was seeded with 5 × 10^4 bacterial cells. Each measurement was performed in three parallel replicates, and to avoid possible edge effects in the microwell plates, the outside rows (A, H) were filled with sterile medium. Following the inoculations, the plates were covered with the lids and wrapped in polyethylene plastic bags, to minimize evaporation but to allow O2 transfer. […] After incubation, the OD600 of each well was measured using a microplate reader (Synergy 2; Biotek, Winooski, VT, USA).

[4] = system: P. aeruginosa ATCC 27863; experiment: MIC broth microdilution, P. aeruginosa; assay type: cell-based; conditions: Pseudomonas aeruginosa
Excerpt: as §3, §4, §5

[5] = system: K. pneumoniae ATCC 10031; experiment: MIC broth microdilution, K. pneumoniae; assay type: cell-based; conditions: Klebsiella pneumoniae, ATCC10031, read-out: MIC K. pneumoniae ATCC #
Excerpt: as §3, §4, §5

[6] = system: E. cloacae spp. cloacae ATCC 13047; experiment: MIC broth microdilution, E. cloacae; assay type: cell-based, Enterobacter cloacae; conditions: Enterobacter cloacae, ATCC13047, read-out: MIC E. cloacae spp. cloacae ATCC #
[7] = system: E. coli ATCC 25922; experiment: MIC broth microdilution, E. coli ATCC 25922; assay type: cell-based; conditions: Escherichia coli, ATCC25922, read-out: MIC E. coli ATCC #
Excerpt: as §3, §4, §5

[8] = system: E. coli BW25113 WT; experiment: MIC, E. coli BW25113 wild-type; assay type: cell-based; conditions: Escherichia coli, BW25113, read-out: Minimum Inhibitory Concentration E. coli BW# WT
Excerpt: as §3, §4, §5

[9] = system: E. coli BW25113 ΔacrB; assay type: cell-based, Escherichia coli
Excerpt: as §3, §4, §5

[10] = system: E. coli BW25113 ΔdapF; assay type: cell-based, Escherichia coli
Excerpt: as §3, §4, §5

[11] = system: E. coli BW25113 ΔmrcB; assay type: cell-based, Escherichia coli
Excerpt: as §3, §4, §5

[12] = system: E. coli BW25113 ΔsurA; assay type: cell-based, Escherichia coli
Excerpt: as §3, §4, §5

[13] = system: E. coli BW25113 ΔtolC; assay type: cell-based, Escherichia coli
Excerpt: as §3, §4, §5

[14] = system: E. coli MG1655 WT; experiment: MIC, E. coli MG1655 wild-type with PAβN; assay type: cell-based, Escherichia coli
Excerpt: as §3, §4
as §5, with “USA). […]” for “USA).”

[15] = system: E. coli MG1655 GyrA S83L, D87N ParC S80I, E84G; experiment: microbe, parasite or virus in culture; assay type: cell-based, Escherichia coli
Excerpt: as §3, §4, §5
(§6) These mutated amino acids are the most common sites for target-based resistance in E. coli.

[16] = system: E. coli MG1655 GyrB R136C; experiment: microbe, parasite or virus in culture; assay type: cell-based, Escherichia coli
Excerpt: as §3, §4, §5, §6

[17] = molar conversion in parentheses
[18] = in the presence of 50 µg/mL PAβN

With `Cc1[nH]c(C(=O)Nc2nc3ccc(C(=O)NCCOCCN4CCN(c5cc6c(cc5F)c(=O)c(C(=O)O)cn6C5CC5)CC4)cc3s2)c(Cl)c1Cl.Cl` [Compound 11a, 4-(3-Carboxy-1-cyclopropyl-6-fluoro-4-oxo-1,4-dihydroquinolin-7-yl)-1-(2-(2-(2-(3,4-dichloro-5-methyl-1H-pyrrole-2-carboxamido)benzo[d]thiazole-6-carboxamido)ethoxy)ethyl)piperazin-1-ium chloride] the IC50 [1] was 130 ± 30 nM, the IC50 [2] was over 10000 nM and the “Inhibition of topoisomerase IV (in words)” value ([2]; relaxation assay) was “lack of activity”. The MIC ([3]; broth microdilution, 18 h) was over 64 µg/mL, the MIC [3, 17] was over 82.9 µM and the MIC ([4]; ATCC27863, 18 h, read-out: MIC P. aeruginosa ATCC #) was over 64 µg/mL. For the same compound, the MIC ([4]; ATCC27863, read-out: MIC P. aeruginosa ATCC #, molar conversion in parentheses, read-out: MIC P. aeruginosa ATCC 27863) was over 82.9 µM, the MIC ([5]; broth microdilution, 18 h) was 4 µg/mL and the MIC [5, 17] was 5.18 µM. For the same compound, the MIC ([6]; broth microdilution, 18 h) was 64 µg/mL, the MIC [6, 17] was 82.9 µM and the MIC ([7]; broth microdilution, 18 h) was 32 µg/mL. For the same compound, the MIC [7, 17] was 41.5 µM, the MIC [8, 17] was 41.5 µM and the MIC ([8]; wild-type) was 32 µg/mL. The “Minimum Inhibitory Concentration E. coli BW25113 ΔacrB” value ([9]; efflux pump mutant) was 32 µg/mL, the “Minimum Inhibitory Concentration E. coli BW25113 ΔacrB” value [9, 17] was “(41.5 µM)” and the “Minimum Inhibitory Concentration E. coli BW25113 ΔdapF” value ([10]; impaired cell-wall mutant) was 32 µg/mL. The “Minimum Inhibitory Concentration E. coli BW25113 ΔdapF” value [10, 17] was “(41.5 µM)”, the “Minimum Inhibitory Concentration E. coli BW25113 ΔmrcB” value ([11]; impaired cell-wall mutant) was 32 µg/mL and the “Minimum Inhibitory Concentration E. coli BW25113 ΔmrcB” value [11, 17] was “(41.5 µM)”. For the same compound, the “Minimum Inhibitory Concentration E. coli BW25113 ΔsurA” value ([12]; impaired cell-wall mutant) was 16 µg/mL, the “Minimum Inhibitory Concentration E. coli BW25113 ΔsurA” value [12, 17] was “(20.7 µM)” and the “Minimum Inhibitory Concentration E. coli BW25113 ΔtolC” value ([13]; efflux pump mutant) was 0.5 µg/mL. The “Minimum Inhibitory Concentration E. coli BW25113 ΔtolC” value [13, 17] was “(0.65 µM)”, the MIC ([14]; Escherichia coli, MG1655, read-out: Minimum Inhibitory Concentration E. coli MG# WT, 50 µg/mL PAβN, molar conversion in parentheses) was 0.65 µM and the “Minimum Inhibitory Concentration E. coli MG1655 WT” value [14, 18] was 0.5 µg/mL. For the same compound, the MIC ([15]; Escherichia coli, MG1655, read-out: Minimum Inhibitory Concentration E. coli MG# GyrA S83L, D87N ParC S80I, E84G) was 10.4 µM, the “Minimum Inhibitory Concentration E. coli MG1655 GyrA S83L, D87N ParC S80I, E84G” value [15, 18] was 8 µg/mL and the MIC ([16]; Escherichia coli, MG1655, read-out: Minimum Inhibitory Concentration E. coli MG# GyrB R#C) was 0.65 µM. The “Minimum Inhibitory Concentration E. coli MG1655 GyrB R136C” value [16, 18] was 0.5 µg/mL and the melting point was 187 to 190 °C.
